Legend:
PD-L1 [1] = experiment: PD-L1 immunofluorescence after MeTC7 treatment, DAOY medulloblastoma cells; type: cell-based, human; conditions: MeTC7 125 nM, confocal microscopy
Method: FIG. 12 is a fluorescent micrograph depicting the effects of MeTC7 (125 nM) treatment on immune checkpoint PD-L1 expression in DAOY (human) medulloblastoma cells. Treated/naïve DAOY cells were analyzed by spinning disk confocal microscopy after staining with PD-L1 primary and suitable secondary antibodies.
Co-localization of VDR and PD-L1 was performed following the method in the Examples above. To determine the expression level of PD-L1 after MeTC7 treatment (125 nM), 10000 cells/well of SKOV-3, OVCAR-8 human ovarian carcinoma cells, IGROV-1 human ovarian carcinoma cells, and ID-8 murine ovarian cancer cells were seeded in an 8 well slide chamber (Nunc) and allowed to adhere overnight in FBS supplemented DMEM media. After 18 hours, the media was removed and the cells were treated with vehicle or MeTC7 supplemented DMEM serum free media for 4-6 hours. Cells maintained in DMEM medium were fixed with formalin solution for 15 mins, washed with PBST solution and blocked with Donkey serum 5% in PBST for 30 minutes. Cells were carefully washed and stained with PD-L1 primary antibody overnight in PBST. The cells were washed and stained with corresponding fluorescence linked secondary antibody for 1 hour. […] Casing on the chambers were removed and DAPI was applied in a mounting medium and images were recorded using an epi or confocal microscopy.

PD-L1 [2] = experiment: PD-L1 immunofluorescence after MeTC7 treatment, ID-8 murine ovarian cancer cells; type: cell-based; conditions: MeTC7 125 nM, 4-6 hours
Method: (§1) Co-localization of VDR and PD-L1 was performed following the method in the Examples above. To determine the expression level of PD-L1 after MeTC7 treatment (125 nM), 10000 cells/well of SKOV-3, OVCAR-8 human ovarian carcinoma cells, IGROV-1 human ovarian carcinoma cells, and ID-8 murine ovarian cancer cells were seeded in an 8 well slide chamber (Nunc) and allowed to adhere overnight in FBS supplemented DMEM media. After 18 hours, the media was removed and the cells were treated with vehicle or MeTC7 supplemented DMEM serum free media for 4-6 hours. Cells maintained in DMEM medium were fixed with formalin solution for 15 mins, washed with PBST solution and blocked with Donkey serum 5% in PBST for 30 minutes. Cells were carefully washed and stained with PD-L1 primary antibody overnight in PBST. The cells were washed and stained with corresponding fluorescence linked secondary antibody for 1 hour. Cells were washed repeatedly with PBST (200 μL) five times. Casing on the chambers were removed and DAPI was applied in a mounting medium and images were recorded using an epi or confocal microscopy.

PD-L1 [3] = experiment: PD-L1 expression after MeTC7 treatment, melanoma cells; type: cell-based
PD-L1 [4] = experiment: PD-L1 immunofluorescence after MeTC7 treatment, human ovarian carcinoma cells (SKOV-3, OVCAR-8, IGROV-1); type: cell-based; conditions: MeTC7 125 nM, 4-6 hours
Method: as §1

SKOV-3 cells = experiment: Tumor size in SKOV-3 xenograft, cisplatin-resistant murine model of ovarian cancer; type: in vivo; conditions: SKOV-3 xenograft nude mice; IP; oligos 7 mg/kg, cisplatin 10 mg/kg once a week; measured every 3 days
Method: Four to six week-old immunodeficient nude mice were maintained at a temperature of ˜22° C. and a relative humidity of ˜55%, with a 12 hour light/dark cycle. The mice used were NU/NU; strain code 088/homozygous, obtained from Charles River Laboratories, Wilmington, Mass. The inoculation of the mice began with culturing SKOV-3 cells to 80% confluence, washing the SKOV-3 cells in PBS twice, and harvesting the cells by trypsination. The harvested cells were then pooled in complete medium, washed in PBS twice, and 2×10^6 cells/inoculate were suspended in 0.1 ml of matrigel. This cell suspension was used to inoculate the mice subcutaneously in the flank of each mouse. Mice with developing tumors after two weeks were randomly assigned to experimental groups. Mice were treated intraperitoneally with either vehicle control (control group; 7 animals) or Antisense-1 (7 mg/kg bwt) or scrambled PTO (7 mg/kg bwt) for 7 days. In another arm mice were treated with cisplatin (10 mg/kg, once a week), or scrambled PTO (7 mg/kg, 5 times/week)+ cisplatin (10 mg/kg, IP, once a week) or Antisense-1 (7 mg/kg, IP, once a week)+ Cisplatin (10 mg/kg, IP, once a week). Mice were weighed and tumor size was measured using a digital caliper every 3 days.

PD-1 = experiment: RT-PCR of PD-1 in donor PBMCs incubated with recombinant HE4; type: cell-based, human; conditions: HE4 5.4 nM, donor PMBCs, within 6 hours
Method: Ficoll-Paque density gradient centrifugation was used to isolate PBMC from heparinized venous blood. Unfractionated PBMC were suspended in serum free RPMI1640 medium. Then the cells were incubated with recombinant HE4 (5.4 nM) or vehicle for 6 hours. TRIzol reagent was used to isolate the total RNA, and the first strand cDNA was made by SuperScript III reverse transcriptase. RT-PCR for the cDNA was done with PD-1 or GAPDH (internal control) gene specific primers. The primer sequences used for PD-1 are F-[…] (SEQ ID NO:4); R-[…] SEQ ID NO:5). The primer sequences used for internal control (GAPDH) are F-AATCCCATCACCATCTTCC SEQ ID NO:6); R-gTCCTTCCACgATACCAAAg SEQ ID NO:7).

Q: With CC(C)CCC[C@@H](C)C1CC[C@H]2C34C=CC5(C[C@@H](OC(=O)CBr)CC[C@]5(C)[C@H]3CC[C@]12C)n1c(=O)n(C)c(=O)n14 (stereo partly drawn) [MeTC7] as the molecule, how does the PD-L1 expression (PD-L1 [1]) read?
A: reduced PD-L1 expression

Q: What about the PD-L1 expression (PD-L1 [2]) of the same molecule?
A: down regulate

Q: What about the PD-L1 expression (PD-L1 [3]) of the same molecule?
A: a similar effect was not found

Q: And the PD-L1 expression (PD-L1 [4])?
A: down regulate

Q: How did the “percent change in tumor size” value (SKOV-3 cells) turn out when N.N.[Cl][Pt][Cl] [cisplatin] was run?
A: an increase in tumor size at least initially

B1: recombinant HE4: exogenous recombinant human epididymis protein 4 added to PBMCs (protein, UniProt Q14508 31-124, looked up)
WAP four-disulfide core …: EKTGVCPELQADQNCTQECVSDSECADNLKCCSAGCATFCSLPNDKEGSCPQVNINFPQLGLCRDQCQVDSQCPGQMKCCRNGCGKVSCVTPNF
Q: With B1 as the molecule, how does the “increase in PD-1 expression (PD-1/GAPDH ratio)” value (PD-1) read?
A: 77.7%
